# In US20240082282A1 (priority 2020, published 2024):
# Tests used:
# [1] = tested on: E. coli ribosomes; experiment: Toeprinting / in vitro translation, affinity to ribosome; assay type: biochemical
# [2] = tested on: E. coli WT-Pore (hyperporinated); experiment: MIC of E. coli mutant strains
# [3] = tested on: B. burgdorferi; experiment: Efficacy of hygromycin A in Peromyscus mice; assay type: in vivo; settings: Peromyscus leucopus, subcutaneous, twice a day, 5 days
# Text: Mice were sacrificed on Day 11 and the heart, ankle, and ear were taken for culture. Cultures were monitored by darkfield microscopy for 4 weeks or until positive.
# [4] = tested on: FaDu, HepG2 and HEK293-RFP cells; settings: a number of human cell lines
# [5] = tested on: Escherichia coli Nissle
# [6] = tested on: E. coli ΔtolC (no efflux); experiment: MIC of E. coli mutant strains
# [7] = tested on: Leptospira interrogans ATCC BAA-1198
# [8] = tested on: Brachyspira (formerly Treponema) hyodysenteriae; settings: report of a group from Japan; cited from earlier work
# [9] = tested on: B. burgdorferi hygromycin A resistant mutant KLEx2; experiment: RNAseq of hygromycin A treated vs untreated cells; assay type: cell-based; settings: for log2 Fold Change: 4 ug/ml hygromycin A vs untreated
substance,measurement,setting,value
Hygromycin A,Kd,"[1]; E. coli ribosomes, inferred from in vitro translation arrest, read-out: Kd of binding to the ribosome",< 10 nM
same,Arrest of in vitro translation of model ORFs,"[1]; lowest concentration tested, 0.6 μM",complete arrest of translation
same,MIC,[2],512 µg/mL
same,Culture positive (%),[3]; total daily dose 100 mg/kg/day,100%
same,Culture positive (%),[3]; total daily dose 200 mg/kg/day,0%
same,EC50 (cytotoxicity),[4],> 512
same,MIC,[5],>128 µg
same,MIC,"[6]; E. coli ΔtolC, no efflux",16 µg/mL
same,Decrease in MIC on addition of adenosine to E. coli,"[6]; adenosine 2.5-2500 μM, concentration-dependent",up to 8 fold
same,Minimum inhibitory concentration (MIC),[7],4 µg/mL
same,Activity against Brachyspira hyodysenteriae,[8],good activity
same,log2 Fold Change,[9]; gene 16S,−1.80
same,log2 Fold Change,[9]; gene BBC10,−8.07
same,log2 Fold Change,[9]; gene BBC11,−7.92
same,log2 Fold Change,[9]; gene BB_0183,−1.46
same,log2 Fold Change,[9]; gene BB_0206,1.07
same,log2 Fold Change,[9]; gene BB_0212,−1.15
same,log2 Fold Change,[9]; gene BB_0731,−1.01
same,log2 Fold Change,[9]; gene BB_0758,1.32
same,log2 Fold Change,[9]; gene BB_0839,−1.15
same,log2 Fold Change,[9]; gene BB_0844,−1.41
same,log2 Fold Change,[9]; gene BB_A07,−1.23
same,log2 Fold Change,[9]; gene BB_A34,1.06
same,log2 Fold Change,[9]; gene BB_B13,1.12
same,log2 Fold Change,[9]; gene BB_H41,−2.37
same,log2 Fold Change,[9]; gene BB_I18,1.16
same,log2 Fold Change,[9]; gene BB_J11,1.02
same,log2 Fold Change,[9]; gene BB_J17,1.43
same,log2 Fold Change,[9]; gene BB_J27,1.18
same,log2 Fold Change,[9]; gene BB_J31,1.22
same,log2 Fold Change,[9]; gene BB_J45,1.22
same,log2 Fold Change,[9]; gene BB_K42,−1.05
same,log2 Fold Change,[9]; gene BB_L03,1.06
same,log2 Fold Change,[9]; gene BB_N03,1.15
same,log2 Fold Change,[9]; gene BB_N04,1.06
same,log2 Fold Change,[9]; gene BB_O18,−1.04
same,log2 Fold Change,[9]; gene BB_P03,1.06
same,log2 Fold Change,[9]; gene BB_U05,−1.14
same,log2 Fold Change,[9]; gene bmpD,−1.67
same,log2 Fold Change,[9]; gene glpK,−1.62
same,log2 Fold Change,[9]; gene tRNA-Cys-1,−1.17
same,Decrease in the expression of bmpD,[9]; transcriptome of hygromycin A treated KLEX2 cells vs untreated,2.78 fold
